# Data: patent US7507727B2, “Substituted quinobenzoxazine analogs and methods of using thereof” (Cylene Pharmaceuticals, Inc., priority 2003, dated 2009)
# Target: c-Myc template DNA (c-myc quadruplex)
# Experiment: Quadruplex binding / stop assay (Taq polymerase arrest, capillary electrophoresis)
# Details: read-out: S DATA; Table 1D, stop assay data
row,IC50 [µM],SMILES
1,> 15,CN1CCN(CCCNc2c(F)cc3c(=O)c(C(=O)NCCCN4CCOCC4)cn4c3c2Oc2ccccc2-4)CC1 [compound 1572]
2,> 15,CN(C)CC(C)(C)CNC(=O)c1cn2c3c(c(NCCCN4CCN(C)CC4)c(F)cc3c1=O)Oc1ccccc1-2 [compound 1580]
3,0.75,CN1CCCC1CCNC(=O)c1cn2c3c(c(NCCC4CCCN4C)ccc3c1=O)Oc1cc3ccccc3cc1-2 (stereo not shown) [compound 1523]
4,10,O=C(NCCN1CCCC1)c1cn2c3c(c(N4CCOCC4)c(F)cc3c1=O)Oc1cc(Cl)ccc1-2 [compound 1815]
5,> 15,O=C(NCCCN1CCOCC1)c1cn2c3c(c(NCCCN4CCOCC4)c(F)cc3c1=O)Oc1ccccc1-2 [compound 1560]
6,1,CN1CCCC1CCNC(=O)c1cn2c3c(c(NCCCn4ccnc4)c(F)cc3c1=O)Oc1cc3ccccc3cc1-2 (stereo not shown) [compound 1670]
7,> 15,CC(C)(C)OC(=O)NC1CCN(C(=O)c2cn3c4c(c(NCCN5CCOCC5)c(F)cc4c2=O)Oc2ccccc2-3)C1 (stereo not shown) [compound 1607]
8,10,CN1CCCC1CCNC(=O)c1cn2c3c(c(N4CCC(c5ccccc5F)C4)c(F)cc3c1=O)Oc1cc3ccccc3cc1-2 (stereo not shown) [compound 1771]
9,1.75,O=C(NCCN1CCCC1)c1cn2c3c(c(NCCCN4CCOCC4)ccc3c1=O)Oc1cc3ccccc3cc1-2 [compound 1528]
10,> 15,O=C(c1cn2c3c(c(NCCN4CCCC4)c(F)cc3c1=O)Oc1ccccc1-2)N1CCC(N2CCCC2)CC1 [compound 1601]
11,0.95,CC1CCCCN1CCCNc1c(F)cc2c(=O)c(C(=O)NCCC3CCCN3C)cn3c2c1Oc1cc2ccccc2cc1-3 (stereo not shown) [compound 1489]
12,> 15,O=C(NCCN1CCCC1)c1cn2c3c(c(NCCN4CCOCC4)ccc3c1=O)Oc1cc3ccccc3cc1-2 [compound 1546]
13,> 15,CN1CCCC1CCNC(=O)c1cn2c3c(c(NCCN4CCOCC4)c(F)cc3c1=O)Oc1ccccc1-2 (stereo not shown) [compound 1608]
14,> 15,CC1CCCN(CCCNC(=O)c2cn3c4c(c(N5CCC(N)C5)c(F)cc4c2=O)Oc2cc4ccccc4cc2-3)C1 (stereo not shown) [compound 1712]
15,> 15,COC(=O)N[C@H]1CCN(c2c(F)cc3c(=O)c(C(=O)NCCC4CCCN4C)cn4c3c2Oc2cc3ccccc3cc2-4)C1 (stereo partly shown) [compound 1515]
16,> 15,NCCCCNC(=O)c1cn2c3c(c(NCCN4CCOCC4)c(F)cc3c1=O)Oc1ccccc1-2 [compound 1611]
17,6.8,CN1CCCC1CCNC(=O)c1cn2c3c(c(N4CCC(c5cnccn5)C4)c(F)cc3c1=O)Oc1ccc(C#N)cc1-2 (stereo not shown) [compound 1777]
18,14.1,O=c1c2cn3c4ccccc4oc4c(N5CCC(c6cnccn6)C5)c(F)cc(c2nn1CCN1CCCC1)c43 (stereo not shown) [compound 1772]
19,> 15,CCOC(=O)c1cn2c3c(c(N4CCC(c5cnccn5)C4)c(F)cc3c1=O)Oc1ccc(C#N)cc1-2 (stereo not shown) [compound 1775]
20,> 15,CC(C)(C)OC(=O)NC1CCN(c2c(F)cc3c(=O)c(C(=O)NCCN4CCOCC4)cn4c3c2Oc2ccccc2-4)C1 (stereo not shown) [compound 1584]
21,> 15,CC(C)N1CCN(c2c(F)cc3c(=O)c(C(=O)NCCN4CCCC4)cn4c3c2Oc2ccc(C#N)cc2-4)CC1 [compound 1796]
22,2.5,CN1CCCC1CCNC(=O)c1cn2c3c(c(NC[C@H]4CCCO4)c(F)cc3c1=O)Oc1cc3ccccc3cc1-2 (stereo partly shown) [compound 1735]

# Same assay, conditions: read-out: Stop Data c-Myc μM; concentration at which 50% of the DNA was arrested (arrested:full-length 1:1)
row,SMILES,IC50 [µM]
1,CN1CCN(CCCNC(=O)c2cn3c4c(c(NCCC5CCCN5C)c(F)cc4c2=O)Oc2cc4ccccc4cc2-3)CC1 (stereo not shown) [compound 123],1.75
2,CN(C)CCCCNC(=O)c1cn2c3cc4c(=O)c5ccccc5c(=O)c4cc3oc3c(NCCCN4CCOCC4)c(F)cc(c1=O)c32 [compound 167],1.75
3,CN1CCC(N(C)c2c(F)cc3c(=O)c(C(=O)NCCC4CCCN4C)cn4c3c2Oc2cc3ccccc3cc2-4)CC1 (stereo not shown) [compound 257],1.75
4,NC1CCN(c2c(F)cc3c(=O)c(C(=O)NN4CCCCC4)cn4c3c2Oc2cc3ccccc3cc2-4)C1 (stereo not shown) [compound 244],1.75
5,O=C(NCCN1CCOCC1)c1cn2c3cc4c(cc3oc3c(NCCCN5CCOCC5)c(F)cc(c1=O)c32)c(=O)c1ccccc14 [compound 425],0.75
6,CN1CCCC1CCNC(=O)c1cn2c3c(c(NCC4CCNCC4)c(F)cc3c1=O)Oc1cc3ccccc3cc1-2 (stereo not shown) [compound 252],1.75
7,O=C(CCN1CCCC1)Nc1c(F)cc2c(=O)c(C(=O)NCCN3CCCC3)cn3c2c1Oc1cc2ccccc2cc1-3 [compound 90],2.5
8,Cc1ncn(C(=O)c2cn3c4c(c(N5CCC(NC(=O)OC(C)(C)C)C5)c(F)cc4c2=O)Oc2cc4ccccc4cc2-3)c1CO (stereo not shown) [compound 187],1.75
9,CC(=O)N[C@@H]1CCN(c2c(F)cc3c(=O)c(C(=O)NCCCN4CCOCC4)cn4c3c2Oc2cc3c(cc2-4)oc2ccccc23)C1 [compound 178],1.75
10,CN1CCC[C@@H]1CCNC(=O)c1cn2c3c(c(N4CCC(c5cnccn5)C4)c(F)cc3c1=O)Oc1cc3ccccc3cc1-2 (stereo partly shown) [compound 356],0.85
11,CN1CCCC1CCNc1c(F)cc2c(=O)c(C(=O)O)cn3c2c1Oc1cc2ccccc2cc1-3 (stereo not shown) [compound 7],1.75
12,CN1CCN(CCCNC(=O)c2cn3c4cc5c(=O)c6ccccc6c(=O)c5cc4oc4c(NCCCN5CCN(C)CC5)c(F)cc(c2=O)c43)CC1 [compound 350],0.9
13,CN1CCCC1CCNC(=O)c1cn2c3c(c(N4CCC(n5c(=O)[nH]c6ccccc65)CC4)c(F)cc3c1=O)Oc1cc3ccccc3cc1-2 (stereo not shown) [compound 324],1
14,CN1CCCC1CCNC(=O)c1cn2c3c(c(N4CCC(C(N)=O)CC4)c(F)cc3c1=O)Oc1cc3ccccc3cc1-2 (stereo not shown) [compound 261],1.75
15,CN1CCCC1CCNC(=O)c1cn2c3c(c(N4CC[C@@H](NC(=O)CCN5CCOCC5)C4)c(F)cc3c1=O)Oc1cc3c(cc1-2)oc1ccccc13 (stereo partly shown) [compound 402],0.75
16,CN1CCCC1CCNC(=O)c1cn2c3c(c(N)c(F)c(NCCCN4CCOCC4)c3c1=O)Oc1cc3ccccc3cc1-2 (stereo not shown) [compound 191],1.75
17,CC(C)(C)OC(=O)NC1CCN(C(=O)c2cn3c4c(c(NCCCN5CCOCC5)c(F)c(N)c4c2=O)Oc2cc4ccccc4cc2-3)C1 (stereo not shown) [compound 219],1.75

row,SMILES,IC50 [µM]
1,CN1CCCC1CCNC(=O)c1cn2c3c(c(NCCN4CCCC4)ccc3c1=O)Oc1cc3ccccc3cc1-2 (stereo not shown) [compound 266],1.75
2,CCCCN1CCC(CNc2c(F)cc3c(=O)c(C(=O)NCCC4CCCN4C)cn4c3c2Oc2cc3ccccc3cc2-4)CC1 (stereo not shown) [compound 336],1
3,CN1CCN(CCCNC(=O)c2cn3c4cc5c(=O)c6ccccc6c(=O)c5cc4oc4c(N5CCC(N)C5)c(F)cc(c2=O)c43)CC1 (stereo not shown) [compound 91],2.5
4,CN1CCN(CCCNc2ccc3c(=O)c(C(=O)NCCCN4CCOCC4)cn4c3c2Oc2cc3ccccc3cc2-4)CC1 [compound 278],1.75
5,CN(C)CCCCNc1c(F)cc2c(=O)c(C(=O)O)cn3c2c1Oc1c-3ccc2ccccc12 [compound 4],1.76
6,CN1CCN(c2c(F)cc3c(=O)c(C(=O)N4CCC(N)C4)cn4c5cc6c(=O)c7ccccc7c(=O)c6cc5oc2c34)CC1 (stereo not shown) [compound 97],2.5
7,CCN(CC)CCCC(C)Nc1c(F)cc2c(=O)c(C(=O)NCCC3CCCN3C)cn3c2c1Oc1cc2ccccc2cc1-3 (stereo not shown) [compound 436],0.75
8,CN1CCN(CCCNC(=O)c2cn3c4c(c(NCCCN5CCOCC5)c(F)cc4c2=O)Oc2cc4c(cc2-3)oc2ccccc24)CC1 [compound 144],1.75
9,CN1CCN(CCCNc2c(F)cc3c(=O)c(C(=O)NCCN4CCCC4)cn4c3c2Oc2cc3ccccc3cc2-4)CC1 [compound 395],0.75
10,CN(C)CCCCNC(=O)c1cn2c3c(c(NCCCCN(C)C)c(F)cc3c1=O)Oc1cc3ccccc3cc1-2 [compound 126],1.75
11,CN(C)CCCCNc1ccc2c(=O)c(C(=O)NCCN3CCCC3)cn3c2c1Oc1cc2ccccc2cc1-3 [compound 326],1
12,CN1CCCC1CCNC(=O)c1cn2c3c(c(NC4CN5CCC4CC5)c(F)cc3c1=O)Oc1cc3ccccc3cc1-2 (stereo not shown) [compound 435],0.75
13,CN1CCCC1CCNC(=O)c1cn2c3c(c(NCCc4c[nH]c5ccccc45)c(F)cc3c1=O)Oc1cc3ccccc3cc1-2 (stereo not shown) [compound 287],1.75
14,CN(C)CCCCNc1c(F)cc2c(=O)c(C(=O)NCCCN3CCN(C)CC3)cn3c4cc5c(=O)c6ccccc6c(=O)c5cc4oc1c23 [compound 171],1.75
15,COc1ccc2[nH]cc(CCNc3c(F)cc4c(=O)c(C(=O)NCCC5CCCN5C)cn5c4c3Oc3cc4ccccc4cc3-5)c2c1 (stereo not shown) [compound 290],1.75
16,COc1ccc(CCNc2c(F)cc3c(=O)c(C(=O)NCCC4CCCN4C)cn4c3c2Oc2cc3ccccc3cc2-4)cc1 (stereo not shown) [compound 286],1.75

# Other lines, results leading:
row,IC50 [µM],SMILES
1,0.75,NCCCNC(=O)c1cn2c3c(c(N4CCC(N)C4)c(F)cc3c1=O)Oc1cc3ccccc3cc1-2 (stereo not shown) [compound 466]
2,0.75,CN(C)CCCNc1c(F)cc2c(=O)c(C(=O)NCCC3CCCN3C)cn3c2c1Oc1cc2ccccc2cc1-3 (stereo not shown) [compound 437]
3,0.375,O=C(NCCCN1CCOCC1)c1cn2c3cc4oc5cc([N+](=O)[O-])ccc5[nH]c4cc3oc3c(NCCN4CCCC4)c(F)cc(c1=O)c32 [compound 552]
4,0.75,CN1CCN(CCCNC(=O)c2cn3c4c(c(N5CC6CCCNC6C5)c(F)cc4c2=O)Oc2cc4ccccc4cc2-3)CC1 (stereo not shown) [compound 461]
5,0.375,CN(C)CCCCNc1c(F)cc2c(=O)c(C(=O)NCCCN3CCOCC3)cn3c4cc5oc6cc([N+](=O)[O-])ccc6[nH]c5cc4oc1c23 [compound 556]
6,0.75,CN1CCCC1CCNC(=O)c1cn2c3c(c(NCCC4CCCN4C)ccc3c1=O)Oc1cc3ccccc3cc1-2 (stereo not shown) [compound 449]
7,0.75,CN(C)CCCCNC(=O)c1cn2c3c(c(NCCC4CCCN4C)ccc3c1=O)Oc1cc3ccccc3cc1-2 (stereo not shown) [compound 450]
8,0.45,CN1CCN(CCCNC(=O)c2cn3c4cc5c(=O)c6ccccc6c(=O)c5cc4oc4c(NCCN5CCCC5)c(F)cc(c2=O)c43)CC1 [compound 491]
9,0.375,CC1(C)CC(NC(=O)c2cn3c4c(c(N5CCC(N)C5)ccc4c2=O)Oc2cc4ccccc4cc2-3)CC(C)(C)N1 (stereo not shown) [compound 558]
